Measured values: PMC11672292, “Discovery of Balasubramide Derivative with Tissue‐Specific Anti‐Inflammatory Activity Against Acute Lung Injury by Targeting VDAC1” (Advanced Science, 2024)
Where two headings read alike, the source gives them in different places.

Assay: Pharmacokinetics and tissue distribution after single intravenous administration
Assay type: in vivo, mouse
Conditions: ICR, mouse, iv, mice; for Kp: read-out: Tissues/plasma ratio
Protocol: Pharmacokinetic studies were performed as previously described.^[ [63] ^] Briefly, ICR mice were fasted without water for 16 h before drug administration and allowed access to food and water freely after administration. After given a single intravenous administration of (+)3C‐20 (10 mg kg^−1), mice were anesthetized with isoflurane, and blood samples were collected through jugular vein at different time points (0, 0.083, 0.25, 0.5, 1, 2, 4, 6, 8, 24 h), as well as at different time points (0.5, 2, 6, 24 h) mice were euthanized and brain, heart, liver, spleen, lung, and kidney were collected. Blood samples were collected in tubes containing sodium heparin and centrifuged at 5000 rpm at 4 °C for 10 min to prepare plasma, tissues were cleaned in prechilled saline and homogenized to be tested, and all samples were stored at […]. LC‐MS/MS was performed to determine the concentrations of (+)3C‐20 in the plasma and tissues of the mice and to calculate the related pharmacokinetic parameters, which were then used to investigate the pharmacokinetic characteristics and tissue distribution of (+)3C‐20 in mice.

[1] = brain, single i.v. 10 mg/kg, read-out: Concentration of (+)3C-20, Brain
[2] = heart, single i.v. 10 mg/kg, read-out: Concentration of (+)3C-20, Heart

**Q.** What does the source list for `O=C(CCc1ccc(C(F)(F)F)cc1)O[C@@H]1C(=O)NCCc2c([nH]c3ccccc23)[C@H]1c1ccc(C(F)(F)F)cc1` [(+)3C-20]?
**A.** concentration at 0.5 h [1]: 518 ± 66 ng/g; concentration at 2 h [1]: 317 ± 86.1 ng/g; concentration at 6 h [1]: 113 ± 11.8 ng/g; concentration at 0.5 h [2]: 4510 ± 630 ng/g; concentration at 2 h [2]: 1270 ± 335 ng/g; concentration at 6 h [2]: 123 ± 12.7 ng/g; half-life (i.v. 10 mg kg^−1, serum and plasma, read-out: average half-life (converted)): 5.3 ± 0.3 h; AUC(0-inf) (single i.v. 10 mg/kg, Blood): 3600 ng·h/mL; AUC(0-t) (single i.v. 10 mg/kg, Blood): 3470 ng·h/mL; C0 (single i.v. 10 mg/kg, Blood): 3950 ng/mL; Cmax (single i.v. 10 mg/kg, Blood): 2340 ng/mL; clearance (single i.v. 10 mg/kg, Blood): 46.4 mL/min/kg; k el (single i.v. 10 mg/kg, Blood): 3.36e-05 s⁻¹; Vd (single i.v. 10 mg/kg, Blood, read-out: VdSS): 12.3 L/kg; half-life (single i.v. 10 mg/kg, Blood, read-out: t1/2 (converted)): 5.72 h; AUC(0-inf) (single i.v. 10 mg/kg, Brain): 3160 ng·h/mL; AUC(0-t) (single i.v. 10 mg/kg, Brain): 2980 ng·h/mL; C0 (single i.v. 10 mg/kg, Brain): 610 ng/mL; Cmax (single i.v. 10 mg/kg, Brain): 518 ng/mL; k el (single i.v. 10 mg/kg, Brain): 3.44e-05 s⁻¹; Kp (single i.v. 10 mg/kg, Brain): 0.699; half-life (single i.v. 10 mg/kg, Brain, read-out: t1/2 (converted)): 5.57 h; AUC(0-inf) (single i.v. 10 mg/kg, Heart): 10200 ng·h/mL; AUC(0-t) (single i.v. 10 mg/kg, Heart): 9980 ng·h/mL; C0 (single i.v. 10 mg/kg, Heart): 6890 ng/mL; Cmax (single i.v. 10 mg/kg, Heart): 4510 ng/mL; k el (single i.v. 10 mg/kg, Heart): 0.000178 s⁻¹; Kp (single i.v. 10 mg/kg, Heart): 2.34; half-life (single i.v. 10 mg/kg, Heart, read-out: t1/2 (converted)): 1.08 h; AUC(0-inf) (single i.v. 10 mg/kg, Kidney): 3980 ng·h/mL; AUC(0-t) (single i.v. 10 mg/kg, Kidney): 3780 ng·h/mL; C0 (single i.v. 10 mg/kg, Kidney): 1960 ng/mL; Cmax (single i.v. 10 mg/kg, Kidney): 1450 ng/mL; k el (single i.v. 10 mg/kg, Kidney): 0.000134 s⁻¹; Kp (single i.v. 10 mg/kg, Kidney): 0.885; half-life (single i.v. 10 mg/kg, Kidney, read-out: t1/2 (converted)): 1.44 h; AUC(0-inf) (single i.v. 10 mg/kg, Liver): 15500 ng·h/mL; AUC(0-t) (single i.v. 10 mg/kg, Liver): 14900 ng·h/mL; C0 (single i.v. 10 mg/kg, Liver): 6050 ng/mL; Cmax (single i.v. 10 mg/kg, Liver): 5010 ng/mL; k el (single i.v. 10 mg/kg, Liver): 0.000145 s⁻¹; Kp (single i.v. 10 mg/kg, Liver): 3.5; half-life (single i.v. 10 mg/kg, Liver, read-out: t1/2 (converted)): 1.33 h; AUC(0-inf) (single i.v. 10 mg/kg, Lung): 22200 ng·h/mL; AUC(0-t) (single i.v. 10 mg/kg, Lung): 22100 ng·h/mL; C0 (single i.v. 10 mg/kg, Lung): 11700 ng/mL; Cmax (single i.v. 10 mg/kg, Lung): 7780 ng/mL; k el (single i.v. 10 mg/kg, Lung): 5.39e-05 s⁻¹; Kp (single i.v. 10 mg/kg, Lung): 5.17; half-life (single i.v. 10 mg/kg, Lung, read-out: t1/2 (converted)): 3.58 h; AUC(0-inf) (single i.v. 10 mg/kg, Plasma): 4770 ng·h/mL; AUC(0-t) (single i.v. 10 mg/kg, Plasma): 4700 ng·h/mL; C0 (single i.v. 10 mg/kg, Plasma): 6280 ng/mL
